Source: PMC4263429 (Biochemistry, 2014)

What was measured:
[1] = system: type 2 dehydratase from E. coli; settings: cited from earlier work
N[C@@H](CO)C(=O)O = test: purified protein, by the assay type
[2] = system: type 1 dehydratase from P. asaccharolyticus; settings: cited from earlier work

## N[C@H](CO)C(=O)O [D-serine]
[1]
  type of inhibition: competitive inhibitors

## (Legionella pneumophila str. Lens)
N[C@@H](CO)C(=O)O
  kcat/Km: 165000 ± 8000 M⁻¹ s⁻¹

## N[C@@H](CS)C(=O)O [L-cysteine]
[1]
  type of inhibition: competitive inhibitors
[2]
  type of inhibition: competitive inhibitor
